Reference: PubChem BioAssay AID1259407 (Chemical Carcinogenesis Research Information System (CCRIS), 2018)
Activity calls are given as the source filed them. The rule behind the calls is not given here.

Test system: CCRIS mutagenicity, Ames/micronucleus/aberration tests
Test: CCRIS mutagenicity studies
Source text: The CCRIS database contains chemical records with carcinogenicity, mutagenicity, tumor promotion, and tumor inhibition test results. It was developed by the National Cancer Institute (NCI). Data are derived from studies cited in primary journals, current awareness tools, NCI reports, and other sources. Test results have been reviewed by experts in carcinogenesis and mutagenesis.
CCRIS provides historical information from the years 1985 - 2011. It is no longer updated.
This is an archive assay for CCRIS mutagenicity studies.

[1] = Test System: AMES SALMONELLA TYPHIMURIUM, Strain/Indicator: TA98, Metabolic Activation: NONE, Method: STANDARD PLATE
[2] = Test System: AMES SALMONELLA TYPHIMURIUM, Strain/Indicator: TA100, Metabolic Activation: NONE, Method: STANDARD PLATE
[3] = Test System: AMES SALMONELLA TYPHIMURIUM, Strain/Indicator: TA1537, Metabolic Activation: NONE, Method: STANDARD PLATE
[4] = Test System: AMES SALMONELLA TYPHIMURIUM, Strain/Indicator: TA100, Metabolic Activation: S-9, Method: STANDARD PLATE

In the case of CC(C)Nc1ccccc1, the mutagenic call (Test System: AMES SALMONELLA TYPHIMURIUM, Strain/Indicator: TA98, Metabolic Activation: HAMSTER, LIVER, S-9, AROCLOR 1254 (5 OR 30%), Method: PREINCUBATION) is reported as “inactive; negative”, the mutagenic call (Test System: AMES SALMONELLA TYPHIMURIUM, Strain/Indicator: TA98, Metabolic Activation: NONE, Method: PREINCUBATION) is reported as “inactive; negative” and the mutagenic call (Test System: AMES SALMONELLA TYPHIMURIUM, Strain/Indicator: TA98, Metabolic Activation: RAT, LIVER, S-9, AROCLOR 1254 (10%), Method: PREINCUBATION) is reported as “inactive; negative”. For the same compound, the mutagenic call (Test System: AMES SALMONELLA TYPHIMURIUM, Strain/Indicator: TA100, Metabolic Activation: HAMSTER, LIVER, S-9, AROCLOR 1254 (10%), Method: PREINCUBATION) was “inactive; negative”, the mutagenic call (Test System: AMES SALMONELLA TYPHIMURIUM, Strain/Indicator: TA100, Metabolic Activation: NONE, Method: PREINCUBATION) was “inactive; negative” and the mutagenic call (Test System: AMES SALMONELLA TYPHIMURIUM, Strain/Indicator: TA100, Metabolic Activation: RAT, LIVER, S-9, AROCLOR 1254 (10%), Method: PREINCUBATION) was “inactive; negative”. The mutagenic call (Test System: AMES SALMONELLA TYPHIMURIUM, Strain/Indicator: TA1535, Metabolic Activation: HAMSTER, LIVER, S-9, AROCLOR 1254 (10%), Method: PREINCUBATION) was “inactive; negative”, the mutagenic call (Test System: AMES SALMONELLA TYPHIMURIUM, Strain/Indicator: TA1535, Metabolic Activation: NONE, Method: PREINCUBATION) was “inactive; negative” and the mutagenic call (Test System: AMES SALMONELLA TYPHIMURIUM, Strain/Indicator: TA1535, Metabolic Activation: RAT, LIVER, S-9, AROCLOR 1254 (10%), Method: PREINCUBATION) was “inactive; negative”. For the same compound, the mutagenic call (Test System: AMES SALMONELLA TYPHIMURIUM, Strain/Indicator: TA1537, Metabolic Activation: HAMSTER, LIVER, S-9, AROCLOR 1254 (10%), Method: PREINCUBATION) was “inactive; negative”, the mutagenic call (Test System: AMES SALMONELLA TYPHIMURIUM, Strain/Indicator: TA1537, Metabolic Activation: NONE, Method: PREINCUBATION) was “inactive; negative” and the mutagenic call (Test System: AMES SALMONELLA TYPHIMURIUM, Strain/Indicator: TA1537, Metabolic Activation: RAT, LIVER, S-9, AROCLOR 1254 (10%), Method: PREINCUBATION) was “inactive; negative”.
For N=C1CCC(=N)c2c1c(O)c1ccccc1c2O, the mutagenic call [1] was “inactive; negative”, the mutagenic call [2] was “inactive; negative” and the mutagenic call (Test System: AMES SALMONELLA TYPHIMURIUM, Strain/Indicator: TA100, Metabolic Activation: RAT, LIVER, S-9, AROCLOR 1254, Method: STANDARD PLATE) was “inactive; negative”. For the same compound, the mutagenic call (Test System: AMES SALMONELLA TYPHIMURIUM, Strain/Indicator: TA1535, Metabolic Activation: NONE, Method: STANDARD PLATE) was “inactive; negative”, the mutagenic call (Test System: AMES SALMONELLA TYPHIMURIUM, Strain/Indicator: TA1535, Metabolic Activation: RAT, LIVER, S-9, AROCLOR 1254, Method: STANDARD PLATE) was “inactive; negative” and the mutagenic call [3] was “active; positive”. The mutagenic call (Test System: AMES SALMONELLA TYPHIMURIUM, Strain/Indicator: TA1537, Metabolic Activation: RAT, LIVER, S-9, AROCLOR 1254, Method: STANDARD PLATE) was “active; positive”, the mutagenic call (Test System: AMES SALMONELLA TYPHIMURIUM, Strain/Indicator: TA1538, Metabolic Activation: NONE, Method: STANDARD PLATE) was “inactive; negative” and the mutagenic call (Test System: AMES SALMONELLA TYPHIMURIUM, Strain/Indicator: TA1538, Metabolic Activation: RAT, LIVER, S-9, AROCLOR 1254, Method: STANDARD PLATE) was “inactive; negative”.
For Clc1ccc(CN2[C@@H]3c4ccccc4-c4ccccc4[C@@H]32)cc1 (some centres not stated), the mutagenic call [2] was “active; positive”.
With O[C@@H]1[C@H]2O[C@H]2c2c(ccc3nc4ccc5ccccc5c4cc23)[C@H]1O the mutagenic call [1] was “active; positive”, the mutagenic call (Test System: AMES SALMONELLA TYPHIMURIUM, Strain/Indicator: TA100, Metabolic Activation: GUINEA PIG, LIVER, S-9, 3-METHYLCHOLANTHRENE, Method: STANDARD PLATE) was “active; positive” and the mutagenic call [2] was “active; positive”. The mutagenic call (Test System: CHINESE HAMSTER V-79, Strain/Indicator: V-79/6-THIOGUANINE, Metabolic Activation: NONE) was “active; positive”.
With CCSC(=O)N1CCCCCC1 the mutagenic call (Test System: AMES SALMONELLA TYPHIMURIUM, Strain/Indicator: TA98, Metabolic Activation: NONE) was “inactive; negative”, the mutagenic call (Test System: AMES SALMONELLA TYPHIMURIUM, Strain/Indicator: TA98, Metabolic Activation: RAT, LIVER, S-9, AROCLOR 1254) was “inactive; negative” and the mutagenic call (Test System: AMES SALMONELLA TYPHIMURIUM, Strain/Indicator: TA100, Metabolic Activation: NONE) was “inactive; negative”. For the same compound, the mutagenic call (Test System: AMES SALMONELLA TYPHIMURIUM, Strain/Indicator: TA100, Metabolic Activation: RAT, LIVER, S-9, AROCLOR 1254) was “inactive; negative”, the mutagenic call (Test System: AMES SALMONELLA TYPHIMURIUM, Strain/Indicator: TA102, Metabolic Activation: NONE) was “inactive; negative” and the mutagenic call (Test System: AMES SALMONELLA TYPHIMURIUM, Strain/Indicator: TA102, Metabolic Activation: RAT, LIVER, S-9, AROCLOR 1254) was “inactive; negative”. The mutagenic call (Test System: AMES SALMONELLA TYPHIMURIUM, Strain/Indicator: TA1535, Metabolic Activation: NONE) was “inactive; negative”, the mutagenic call (Test System: AMES SALMONELLA TYPHIMURIUM, Strain/Indicator: TA1535, Metabolic Activation: RAT, LIVER, S-9, AROCLOR 1254) was “inactive; negative” and the mutagenic call (Test System: AMES SALMONELLA TYPHIMURIUM, Strain/Indicator: TA1537, Metabolic Activation: NONE) was “inactive; negative”. The mutagenic call (Test System: AMES SALMONELLA TYPHIMURIUM, Strain/Indicator: TA1537, Metabolic Activation: RAT, LIVER, S-9, AROCLOR 1254) was “inactive; negative”.
In the case of O=[N+]([O-])c1ccc(/C=C/c2ccc(Cl)cc2)cc1, the mutagenic call (Test System: AMES SALMONELLA TYPHIMURIUM, Strain/Indicator: TA98 (NR), Metabolic Activation: NONE, Method: STANDARD PLATE) is reported as “active; positive”, the mutagenic call (Test System: AMES SALMONELLA TYPHIMURIUM, Strain/Indicator: TA98 (NR), Metabolic Activation: S-9, Method: STANDARD PLATE) is reported as “active; positive” and the mutagenic call [1] is reported as “active; positive”. The mutagenic call (Test System: AMES SALMONELLA TYPHIMURIUM, Strain/Indicator: TA98, Metabolic Activation: S-9, Method: STANDARD PLATE) was “active; positive”, the mutagenic call (Test System: AMES SALMONELLA TYPHIMURIUM, Strain/Indicator: TA100 (NR), Metabolic Activation: NONE, Method: STANDARD PLATE) was “inactive; negative” and the mutagenic call (Test System: AMES SALMONELLA TYPHIMURIUM, Strain/Indicator: TA100 (NR), Metabolic Activation: S-9, Method: STANDARD PLATE) was “inactive; negative”. The mutagenic call [2] was “inactive; negative” and the mutagenic call [4] was “active; positive”.
With CCC12OC1(C(=O)OC)C(=O)OC2C (configuration not stated) the mutagenic call (Test System: AMES SALMONELLA TYPHIMURIUM, Strain/Indicator: TA98, Metabolic Activation: NONE, Method: DISK ASSAY) was “inactive; negative”, the mutagenic call [1] was “inactive; negative” and the mutagenic call (Test System: AMES SALMONELLA TYPHIMURIUM, Strain/Indicator: TA98, Metabolic Activation: RAT, LIVER, S-9, AROCLOR 1254, Method: DISK ASSAY) was “inactive; negative”. The mutagenic call (Test System: AMES SALMONELLA TYPHIMURIUM, Strain/Indicator: TA98, Metabolic Activation: RAT, LIVER, S-9, AROCLOR 1254, Method: STANDARD PLATE) was “active; positive”.
[N-]=[N+]=Nc1ccc2c(Nc3ccc(C(=O)O)cc3)c3ccccc3nc2c1 was tested, and the mutagenic call [3] was “active; positive”.
In the case of CCN[C@H](C)C[C@@H](C)NCC.[Cl-].[Cl-].[Pt+2], the mutagenic call (Test System: AMES SALMONELLA TYPHIMURIUM, Strain/Indicator: TA97A, Metabolic Activation: NONE, Method: STANDARD PLATE) is reported as “inactive; negative” and the mutagenic call [2] is reported as “inactive; negative”.
With O=C(CCCCl)N=c1sn(C(=O)CCCCl)c2ccc([N+](=O)[O-])cc12 the mutagenic call [4] was “active; positive”.
